Source: patent publication US9963453B2, “Substituted pyrazino[1,2-a]indoles as sigma receptor activity modulators” (LABORATORIOS DEL DR. ESTEVE S.A., priority 2013, dated 2018)
Structures can show the parent of a compound that is named as a salt.

target: human sigma 1 receptor (Homo sapiens (Human), UniProt Q99720); assay: Human Sigma 1 Receptor Radioligand Assay; assay type: binding; details: transfected HEK-293 membranes, 5 nM [3H](+)-pentazocine as radioligand, 37° C., 120 minutes
Protocol: Human Sigma 1 Receptor Radioligand Assay
To investigate binding properties of sigma 1 receptor ligands to human sigma 1 receptor, transfected HEK-293 membranes and [^3H](+)-pentazocine (Perkin Elmer, NET-1056), as the radioligand, were used. The assay was carried out with 7 μg of membrane suspension, 5 nM of [^3H](+)-pentazocine in either absence or presence of either buffer or 10 μM Haloperidol for total and non-specific binding, respectively. Binding buffer contained Tris-HCl 50 mM at pH 8. Plates were incubated at 37° C. for 120 minutes. After the incubation period, the reaction mix was then transferred to MultiScreen HTS, FC plates (Millipore), filtered and plates were washed 3 times with ice-cold 10 mM TrisHCL (pH7.4). Filters were dried and counted at approximately 40% efficiency in a MicroBeta scintillation counter (Perkin-Elmer) using EcoScint liquid scintillation cocktail.

human sigma 1 receptor, sequence (Q99720 whole entry): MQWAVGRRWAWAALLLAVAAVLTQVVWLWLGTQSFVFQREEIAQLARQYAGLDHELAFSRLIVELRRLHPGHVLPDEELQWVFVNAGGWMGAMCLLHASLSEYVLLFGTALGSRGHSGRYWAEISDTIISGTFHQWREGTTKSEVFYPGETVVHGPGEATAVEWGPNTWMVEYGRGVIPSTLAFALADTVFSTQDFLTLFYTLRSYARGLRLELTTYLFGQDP

Row | Ki [nM] | Structure (SMILES)
1 | 105 | CC(C(=O)N1CCn2c(cc3ccccc32)C1)N1CCN(C)CC1 (stereo not drawn) [Example 1, 1-(3,4-dihydropyrazino[1,2-a]indol-2(1H)-yl)-2-(4-methylpiperazin-1-yl)propan-1-one]
2 | 96.1 | CN1CCN(C(C)(C)C(=O)N2CCn3c(cc4ccccc43)C2)CC1 [Example 2, 1-(3,4-dihydropyrazino[1,2-a]indol-2(1H)-yl)-2-methyl-2-(4-methylpiperazin-1-yl)propan-1-one]
3 | 68.2 | CC(CC(=O)N1CCn2c(cc3ccccc32)C1)N1CCN(C)CC1 (stereo not drawn) [Example 3, 1-(3,4-dihydropyrazino[1,2-a]indol-2(1H)-yl)-3-(4-methylpiperazin-1-yl)butan-1-one]
4 | 10.2 | O=C(CN1CCCCCC1)N1CCn2c(cc3ccccc32)C1 [Example 4, 2-(azepan-1-yl)-1-(3,4-dihydropyrazino[1,2-a]indol-2(1H)-yl)ethanone hydrochloride]
5 | 39.8 | O=C(CN1CCCCC1)N1CCn2c(cc3ccccc32)C1 [Example 5, 1-(3,4-dihydropyrazino[1,2-a]indol-2(1H)-yl)-2-(piperidin-1-yl)ethanone hydrochloride]
6 | 14.4 | O=C(CN1CCC(Cc2ccccc2)CC1)N1CCn2c(cc3ccccc32)C1 [Example 6, 2-(4-benzylpiperidin-1-yl)-1-(3,4-dihydropyrazino[1,2-a]indol-2(1H)-yl)ethanone hydrochloride]
7 | 24.8 | CC(C(=O)N1CCn2c(cc3ccccc32)C1)N1CCCCCC1 (stereo not drawn) [Example 7, 2-(azepan-1-yl)-1-(3,4-dihydropyrazino[1,2-a]indol-2(1H)-yl)propan-1-one]
8 | 129 | CC(C(=O)N1CCn2c(cc3ccccc32)C1)N1CCCCC1 (stereo not drawn) [Example 9, 1-(3,4-dihydropyrazino[1,2-a]indol-2(1H)-yl)-2-(piperidin-1-yl)propan-1-one]
9 | 25 | CC(C(=O)N1CCn2c(cc3ccccc32)C1)N1CCC(Cc2ccccc2)CC1 (stereo not drawn) [Example 10, 2-(4-benzylpiperidin-1-yl)-1-(3,4-dihydropyrazino[1,2-a]indol-2(1H)-yl)propan-1-one]
10 | 60.8 | CN(C)CCCC(=O)N1CCn2c(cc3ccccc32)C1 [Example 11, 1-(3,4-dihydropyrazino[1,2-a]indol-2(1H)-yl)-4-(dimethylamino)butan-1-one]
11 | 14.6 | O=C(CN1CCCCCC1)N1CCn2c(cc3cc(F)ccc32)C1 [Example 12, 2-(azepan-1-yl)-1-(8-fluoro-3,4-dihydropyrazino[1,2-a]indol-2(1H)-yl)ethanone]
12 | 69.7 | Cc1ccc2c(c1)cc1n2CCN(C(=O)C(C)N2CCCCCC2)C1 (stereo not drawn) [Example 13, 2-(azepan-1-yl)-1-(8-methyl-3,4-dihydropyrazino[1,2-a]indol-2(1H)-yl)propan-1-one]
13 | 24 | Cc1c2n(c3ccccc13)CCN(C(=O)CN1CCCCC1)C2 [Example 14, 1-(10-methyl-3,4-dihydropyrazino[1,2-a]indol-2(1H)-yl)-2-(piperidin-1-yl)ethanone]
14 | 26.2 | Cc1c2n(c3ccccc13)CCN(C(=O)CN1CCC(Cc3ccccc3)CC1)C2 [Example 15, 2-(4-benzylpiperidin-1-yl)-1-(10-methyl-3,4-dihydropyrazino[1,2-a]indol-2(1H)-yl)ethanone]
15 | 22.2 | O=C(CCCN1CCCCC1)N1CCn2c(cc3cc(F)ccc32)C1 [Example 16, 1-(8-fluoro-3,4-dihydropyrazino[1,2-a]indol-2(1H)-yl)-4-(piperidin-1-yl)butan-1-one]
16 | 10.9 | O=C(CCN1CCCCCC1)N1CCn2c(cc3ccccc32)C1 [Example 17, 3-(azepan-1-yl)-1-(3,4-dihydropyrazino[1,2-a]indol-2(1H)-yl)propan-1-one]
17 | 55.9 | C[C@@H](C(=O)N1CCn2c(cc3ccccc32)C1)N1CCN(C)CC1 [Example 19, (S)-1-(3,4-dihydropyrazino[1,2-a]indol-2(1H)-yl)-2-(4-methylpiperazin-1-yl)propan-1-one]
18 | 28.8 | O=C(CCCN1CCCCC1)N1CCn2c(cc3ccccc32)C1 [Example 20, 1-(3,4-dihydropyrazino[1,2-a]indol-2(1H)-yl)-4-(piperidin-1-yl)butan-1-one]
19 | 21.9 | O=C(CCCN1CCCCCC1)N1CCn2c(cc3cc(F)ccc32)C1 [Example 21, 4-(azepan-1-yl)-1-(8-fluoro-3,4-dihydropyrazino[1,2-a]indol-2(1H)-yl)butan-1-one]

Row | Ki [nM] | Structure (SMILES)
20 | 292 | CN1CCN(CCCC(=O)N2CCn3c(cc4ccccc43)C2)CC1 [Example 22, 1-(3,4-dihydropyrazino[1,2-a]indol-2(1H)-yl)-4-(4-methylpiperazin-1-yl)butan-1-one]
21 | 37.6 | CC(C(=O)N1CCn2c(cc3ccccc32)C1)N1CCN(C2CCCCC2)CC1 (stereo not drawn) [Example 24, 2-(4-cyclohexylpiperazin-1-yl)-1-(3,4-dihydropyrazino[1,2-a]indol-2(1H)-yl)propan-1-one]
22 | 118 | CC(C(=O)N1CCN2c3ccccc3CC2C1)N1CCN(C)CC1 (stereo not drawn) [Example 25, 2-(4-methylpiperazin-1-yl)-1-(3,4,10,10a-tetrahydropyrazino[1,2-a]indol-2(1H)-yl)propan-1-one]
23 | 123 | CC(C(=O)N1CCn2c(cc3cc(F)ccc32)C1)N1CCN(C)CC1 (stereo not drawn) [Example 26, 1-(8-fluoro-3,4-dihydropyrazino[1,2-a]indol-2(1H)-yl)-2-(4-methylpiperazin-1-yl)propan-1-one]
24 | 25.6 | CC(C(=O)N1CCn2c(cc3cc(F)ccc32)C1)N1CCN(C2CCCCC2)CC1 (stereo not drawn) [Example 27, 2-(4-cyclohexylpiperazin-1-yl)-1-(8-fluoro-3,4-dihydropyrazino[1,2-a]indol-2(1H)-yl)propan-1-one]
25 | 125 | CCN1CCN(C(C)C(=O)N2CCn3c(cc4cc(F)ccc43)C2)CC1 (stereo not drawn) [Example 29, 2-(4-ethylpiperazin-1-yl)-1-(8-fluoro-3,4-dihydropyrazino[1,2-a]indol-2(1H)-yl)propan-1-one]
26 | 241 | CCN(CC)CCNC(C)C(=O)N1CCn2c(cc3ccccc32)C1 (stereo not drawn) [Example 30, 2-(2-(diethylamino)ethylamino)-1-(3,4-dihydropyrazino[1,2-a]indol-2(1H)-yl)propan-1-one]
27 | 234 | C[C@H](C(=O)N1CCN2c3ccccc3C[C@H]2C1)N1CCN(C)CC1 [Example 32, (R)-2-(4-methylpiperazin-1-yl)-1-((S)-3,4,10,10a-tetrahydropyrazino[1,2-a]indol-2(1H)-yl)propan-1-one]
28 | 84.3 | C[C@@H](C(=O)N1CCN2c3ccccc3C[C@@H]2C1)N1CCN(C)CC1 [Example 33, (S)-2-(4-methylpiperazin-1-yl)-1-((R)-3,4,10,10a-tetrahydropyrazino[1,2-a]indol-2(1H)-yl)propan-1-one]
29 | 56.5 | C[C@@H](C(=O)N1CCN2c3ccccc3C[C@H]2C1)N1CCN(C)CC1 [Example 34, (S)-2-(4-methylpiperazin-1-yl)-1-((S)-3,4,10,10a-tetrahydropyrazino[1,2-a]indol-2(1H)-yl)propan-1-one]
30 | 500 | CC(C(=O)N1CCn2c(cc3ccccc32)C1)N1CCC(N2CCCCC2)CC1 (stereo not drawn) [Example 37, 2-(1,4′-bipiperidin-1′-yl)-1-(3,4-dihydropyrazino[1,2-a]indol-2(1H)-yl)propan-1-one]
31 | 89.3 | CCC(C(=O)N1CCn2c(cc3ccccc32)C1)N1CCN(C)CC1 (stereo not drawn) [Example 38, 1-(3,4-dihydropyrazino[1,2-a]indol-2(1H)-yl)-2-(4-methylpiperazin-1-yl)butan-1-one]
32 | 427 | CCC(C(=O)N1CCn2c(cc3ccccc32)C1)N(C)CCN(C)C (stereo not drawn) [Example 39, 1-(3,4-dihydropyrazino[1,2-a]indol-2(1H)-yl)-2-((2-(dimethylamino)ethyl)(methyl)amino)butan-1-one]
33 | 73 | CC(CN1CCN(C)CC1)C(=O)N1CCn2c(cc3ccccc32)C1 (stereo not drawn) [Example 41, 1-(3,4-dihydropyrazino[1,2-a]indol-2(1H)-yl)-2-methyl-3-(4-methylpiperazin-1-yl)propan-1-one]
34 | 151 | CN(C)CCCC(=O)N1CCN2c3ccccc3CC2C1 (stereo not drawn) [Example 43, 4-(dimethylamino)-1-(3,4,10,10a-tetrahydropyrazino[1,2-a]indol-2(1H)-yl)butan-1-one]
35 | 175 | CN1CCN(C(C)(C)C(=O)N2CCN3c4ccccc4CC3C2)CC1 (stereo not drawn) [Example 44, 2-methyl-2-(4-methylpiperazin-1-yl)-1-(3,4,10,10a-tetrahydropyrazino[1,2-a]indol-2(1H)-yl)propan-1-one]
36 | 75.5 | CC[C@@H](C(=O)N1CCn2c(cc3ccccc32)C1)N1CCN(C)CC1 [Example 46, (S)-1-(3,4-dihydropyrazino[1,2-a]indol-2(1H)-yl)-2-(4-methylpiperazin-1-yl)butan-1-one]
37 | 49.5 | C[C@H](CN1CCN(C)CC1)C(=O)N1CCn2c(cc3ccccc32)C1 [Example 47, (R)-1-(3,4-dihydropyrazino[1,2-a]indol-2(1H)-yl)-2-methyl-3-(4-methylpiperazin-1-yl)propan-1-one]
38 | 142 | C[C@@H](CN1CCN(C)CC1)C(=O)N1CCn2c(cc3ccccc32)C1 [Example 48, (S)-1-(3,4-dihydropyrazino[1,2-a]indol-2(1H)-yl)-2-methyl-3-(4-methylpiperazin-1-yl)propan-1-one]

same assay, conditions: transfected HEK-293 membranes, 5 nM [3H](+)-pentazocine as radioligand, 37° C., 120 minutes; maleate

Row | Ki [nM] | Structure (SMILES)
39 | 29.6 | CC(C(=O)N1CCn2c(cc3ccccc32)C1)N1CCCCCC1 (stereo not drawn) [Example 8, 2-(azepan-1-yl)-1-(3,4-dihydropyrazino[1,2-a]indol-2(1H)-yl)propan-1-one maleate]
